# Test results as given in publication PMC8301423, “The Effects of Temperature and Pressure on Protein-Ligand Binding in the Presence of Mars-Relevant Salts” (Biology, 2021).
# Several values for one entry are separate records, joined by “and”; a condition that tells them apart may be missing. Equal entries are not always repeated.
# Legend:
# [1] = target: T1, bovine serum albumin (BSA) (Bos taurus, UniProt P02769); conditions: neat buffer (10 mM Tris-HCl), no salt; cited from earlier work
# T1 construct: BSA, molecular weight of 66 kDa, 583 residues; purchased Sigma Aldrich Chemicals (Taufkirchen, Germany)
# [2] = target: T1, bovine serum albumin (BSA); assay: Steady-state fluorescence titration of ANS with BSA at ambient pressure (binding isotherms); conditions: for Kd: 1 bar, 10 mM Tris-HCl pH 7.4
# Description: (§1) The extent of complex formation between ANS and BSA was followed by means of steady-state fluorescence spectroscopy using a K2 fluorometer from ISS, Inc. (Champaign, IL, USA). The binding isotherms were obtained by recording ANS emission spectra by exciting the solutions at 350 nm and recording the emission intensities in the range 400–550 nm. The width slits of the excitation and emission monochromators were both set to 8 nm. Briefly, a series of solutions with a fixed concentration of ANS at ~5 µM were prepared, and the concentration of BSA was varied between 0 and ~40 µM. Then estimation of the binding constants (Kb) was performed by using a plot of ΔF = F − F0 (where F is the fluorescence intensity of ANS at the maximum in the presence of BSA, and F0 is the intensity of ANS in the absence of BSA) as a function of total BSA concentration and fitting the experimental data according to an equivalent and independent binding sites model or to two classes of non-equivalent and independent binding-site models, as described in detail in Reference.
# Once the stoichiometries of the complex in the presence of the salts and at the three different temperatures are known, it is possible to estimate the binding constants, Kb, performing titration experiments by means of steady-state fluorescence spectroscopy. In these experiments, a solution of ANS was titrated with a BSA solution. The ANS is characterized by a very low quantum yield when it is free in solution [21]. Instead, when the aromatic ligand is bound to the protein’s hydrophobic pockets, a strong increase of the fluorescence intensity is observed. Thus, the extent of binding can be readily determined by following the fluorescence increase of ANS. The subsequent data analysis was performed according to the stoichiometries inferred by the Job’s plot experiments.
# [3] = target: T1, bovine serum albumin (BSA); assay: High hydrostatic pressure fluorescence titration of ANS with BSA (1-2000 bar); format: binding; conditions: for Binding volume ΔVb1 (first binding site): from slope of lnKb1 vs p (1-2000 bar); for Binding volume ΔVb1 (first binding site) / Binding volume ΔVb2 (second binding site) / Binding volume ΔVb: per mol of protein; for Binding volume ΔVb2 (second binding site): from slope of lnKb2 vs p (1-2000 bar); for Binding volume ΔVb: from slope of lnKb vs p (1-2000 bar)
# Description: as §1
# For the pressure dependent measurements, the high-pressure cell system from ISS and quartz cuvettes were used. The pressure was controlled by means of a manual pump, and water was used as pressurizing fluid. A pressure range from 1 to 2000 bar was explored. The ANS and BSA solutions were mixed, vortexed, and then filled into the sample cell, which was sealed with DuraSeal^TM laboratory stretch film and placed into the high-pressure vessel. The stretch film allowed for the pressure transmission in the sample cuvette.
# In the next step, we explored the impact of high hydrostatic pressure (HHP) on the binding of ANS to BSA in the presence of the three salts and in the temperature range between 5 and 25 °C. To this end, we performed the same titration experiments following the complex formation by means of HHP fluorescence spectroscopy.
# From the pressure dependence of the Kb values, the volume change upon binding, the protein–ligand binding volume ΔVb, can be determined (for an in-depth discussion of pressure effects on ligand binding, please refer to Reference and references therein):(1) [∂lnKb/∂p]T=−ΔVb/RT
# Here, [∂lnKb/∂p]T is the derivative of the logarithm of the binding constant (Kb) with respect to pressure (p) at constant temperature (T). R is the universal gas constant. ΔVb is the binding volume defined as the difference between the partial molar volume of the complex (PL, where P is the protein and L the ligand) and the sum of the partial molar volumes of the uncomplexed state (P+L). Thus, the binding volume can be directly estimated by taking the slope of a plot of lnKb vs. p, assuming that the volume change is independent of pressure in the (here rather small) pressure range covered.
# T1 sequence (P02769 25-607): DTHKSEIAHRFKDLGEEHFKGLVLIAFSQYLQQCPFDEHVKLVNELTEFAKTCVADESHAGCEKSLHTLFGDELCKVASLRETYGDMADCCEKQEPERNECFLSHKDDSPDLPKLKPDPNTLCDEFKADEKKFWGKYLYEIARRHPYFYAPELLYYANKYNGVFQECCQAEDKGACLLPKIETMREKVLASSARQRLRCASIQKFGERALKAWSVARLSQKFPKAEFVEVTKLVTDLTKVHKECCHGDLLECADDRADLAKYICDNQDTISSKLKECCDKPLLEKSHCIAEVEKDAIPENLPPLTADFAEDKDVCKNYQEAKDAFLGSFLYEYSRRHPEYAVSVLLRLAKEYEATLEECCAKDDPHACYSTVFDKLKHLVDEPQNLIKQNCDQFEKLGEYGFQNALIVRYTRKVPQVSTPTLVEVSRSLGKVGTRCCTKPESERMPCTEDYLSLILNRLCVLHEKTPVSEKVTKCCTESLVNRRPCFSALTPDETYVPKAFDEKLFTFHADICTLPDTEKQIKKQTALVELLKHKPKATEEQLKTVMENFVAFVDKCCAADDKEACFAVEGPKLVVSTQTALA
compound,measurement,setting,value
"O=S(=O)(O)c1cccc2cccc(Nc3ccccc3)c12 [ANS, 8-anilinonaphthalene-1-sulfonic acid]",ANS molecules bound on average to one BSA molecule,[1],three
same,Decrease of Kb on decreasing the temperature from 25 to 15 °C,"[2]; 250 mM MgCl2, 1 bar",~ 90%
same,Kd,"[2]; Binding constant Kb1, 250 mM Mg(ClO4)2, 5 °C",5260 nM
same,Kd,"[2]; Binding constant Kb1, 250 mM Mg(ClO4)2, 15 °C",6670 nM
same,Kd,"[2]; Binding constant Kb1, 250 mM Mg(ClO4)2, 25 °C",1690 nM
same,Kd,"[2]; Binding constant Kb1, 250 mM MgCl2, 5 °C",1000 ± 100 nM
same,Kd,"[2]; Binding constant Kb1, 250 mM MgCl2, 15 °C",2780 nM
same,Kd,"[2]; Binding constant Kb1, 250 mM MgCl2, 25 °C",204 nM
same,Kd,"[2]; Binding constant Kb1, 250 mM MgSO4, 5 °C",1610 nM
same,Kd,"[2]; Binding constant Kb1, 250 mM MgSO4, 15 °C",2560 nM
same,Kd,"[2]; Binding constant Kb1, 250 mM MgSO4, 25 °C",345 nM
same,Kd,"[2]; Binding constant Kb2, 250 mM Mg(ClO4)2, 5 °C",5260 nM
same,Kd,"[2]; Binding constant Kb2, 250 mM Mg(ClO4)2, 15 °C",7690 nM
same,Kd,"[2]; Binding constant Kb2, 250 mM Mg(ClO4)2, 25 °C",833 nM
same,Binding volume ΔVb1 (first binding site),"[3]; 250 mM Mg(ClO4)2, 5 °C",-7.4 mL/mol and -7.4 ± 2.4 mL/mol
same,Binding volume ΔVb2 (second binding site),"[3]; 250 mM Mg(ClO4)2, 5 °C",-12.9 mL/mol and -12.9 ± 3.2 mL/mol
same,Binding volume ΔVb1 (first binding site),"[3]; 250 mM Mg(ClO4)2, 15 °C",-6.0 ± 1.0 mL/mol
same,Binding volume ΔVb2 (second binding site),"[3]; 250 mM Mg(ClO4)2, 15 °C",-5.0 ± 1.0 mL/mol
same,Binding volume ΔVb1 (first binding site),"[3]; 250 mM Mg(ClO4)2, 25 °C",6.0 ± 2.0 mL/mol
same,Binding volume ΔVb2 (second binding site),"[3]; 250 mM Mg(ClO4)2, 25 °C",2.0 ± 1.0 mL/mol
same,Increase of Kb with pressure (factor),"[3]; 250 mM MgCl2, 5 °C, up to 2 kbar",about a factor of two
same,Binding volume ΔVb,"[3]; 250 mM MgCl2, 15 °C",-2.5 ± 0.4 mL/mol
same,Binding volume ΔVb,"[3]; 250 mM MgCl2, 25 °C",-1.0 ± 1.0 mL/mol
same,Binding volume ΔVb,"[3]; 250 mM MgSO4, 5 °C",2.0 ± 1.0 mL/mol
same,Binding volume ΔVb,"[3]; 250 mM MgSO4, 15 °C",-2.0 ± 1.0 mL/mol
same,Binding volume ΔVb,"[3]; 250 mM MgSO4, 25 °C",3.6 ± 0.5 mL/mol
same,Kd,"[3]; Binding constant Kb1, 250 mM Mg(ClO4)2, 5 °C, 1 bar",5260 nM
same,Kd,"[3]; Binding constant Kb1, 250 mM Mg(ClO4)2, 5 °C, 500 bar",3130 nM
same,Kd,"[3]; Binding constant Kb1, 250 mM Mg(ClO4)2, 5 °C, 1000 bar",2940 nM
same,Kd,"[3]; Binding constant Kb1, 250 mM Mg(ClO4)2, 5 °C, 1500 bar",2860 nM
same,Kd,"[3]; Binding constant Kb1, 250 mM Mg(ClO4)2, 5 °C, 2000 bar",2560 nM
same,Kd,"[3]; Binding constant Kb1, 250 mM Mg(ClO4)2, 15 °C, 1 bar",6670 nM
same,Kd,"[3]; Binding constant Kb1, 250 mM Mg(ClO4)2, 15 °C, 500 bar",7140 nM
same,Kd,"[3]; Binding constant Kb1, 250 mM Mg(ClO4)2, 15 °C, 1000 bar",5260 nM
same,Kd,"[3]; Binding constant Kb1, 250 mM Mg(ClO4)2, 15 °C, 1500 bar",4760 nM
same,Kd,"[3]; Binding constant Kb1, 250 mM Mg(ClO4)2, 15 °C, 2000 bar",3850 nM
same,Kd,"[3]; Binding constant Kb1, 250 mM Mg(ClO4)2, 25 °C, 1 bar",1690 nM
same,Kd,"[3]; Binding constant Kb1, 250 mM Mg(ClO4)2, 25 °C, 500 bar",1690 nM
same,Kd,"[3]; Binding constant Kb1, 250 mM Mg(ClO4)2, 25 °C, 1000 bar",2630 nM
same,Kd,"[3]; Binding constant Kb1, 250 mM Mg(ClO4)2, 25 °C, 1500 bar",2940 nM
same,Kd,"[3]; Binding constant Kb1, 250 mM Mg(ClO4)2, 25 °C, 2000 bar",2500 nM
same,Kd,"[3]; Binding constant Kb1, 250 mM MgCl2, 5 °C, 1 bar",1000 ± 100 nM
same,Kd,"[3]; Binding constant Kb1, 250 mM MgCl2, 5 °C, 500 bar",1000 ± 200 nM
same,Kd,"[3]; Binding constant Kb1, 250 mM MgCl2, 5 °C, 1000 bar",833 nM
same,Kd,"[3]; Binding constant Kb1, 250 mM MgCl2, 5 °C, 1500 bar",556 nM
same,Kd,"[3]; Binding constant Kb1, 250 mM MgCl2, 5 °C, 2000 bar",526 nM
same,Kd,"[3]; Binding constant Kb1, 250 mM MgCl2, 15 °C, 1 bar",2780 nM
same,Kd,"[3]; Binding constant Kb1, 250 mM MgCl2, 15 °C, 500 bar",2500 nM
same,Kd,"[3]; Binding constant Kb1, 250 mM MgCl2, 15 °C, 1000 bar",2440 nM
same,Kd,"[3]; Binding constant Kb1, 250 mM MgCl2, 15 °C, 1500 bar",2330 nM
same,Kd,"[3]; Binding constant Kb1, 250 mM MgCl2, 15 °C, 2000 bar",2220 nM
same,Kd,"[3]; Binding constant Kb1, 250 mM MgCl2, 25 °C, 1 bar",204 nM
same,Kd,"[3]; Binding constant Kb1, 250 mM MgCl2, 25 °C, 500 bar",233 nM
same,Kd,"[3]; Binding constant Kb1, 250 mM MgCl2, 25 °C, 1000 bar",222 nM
same,Kd,"[3]; Binding constant Kb1, 250 mM MgCl2, 25 °C, 1500 bar",204 nM
same,Kd,"[3]; Binding constant Kb1, 250 mM MgCl2, 25 °C, 2000 bar",192 nM
same,Kd,"[3]; Binding constant Kb1, 250 mM MgSO4, 5 °C, 1 bar",1610 nM
same,Kd,"[3]; Binding constant Kb1, 250 mM MgSO4, 5 °C, 500 bar",2080 nM
same,Kd,"[3]; Binding constant Kb1, 250 mM MgSO4, 5 °C, 1000 bar",2130 nM
same,Kd,"[3]; Binding constant Kb1, 250 mM MgSO4, 5 °C, 1500 bar",1820 nM
same,Kd,"[3]; Binding constant Kb1, 250 mM MgSO4, 5 °C, 2000 bar",2270 nM
same,Kd,"[3]; Binding constant Kb1, 250 mM MgSO4, 15 °C, 1 bar",2560 nM
same,Kd,"[3]; Binding constant Kb1, 250 mM MgSO4, 15 °C, 500 bar",2500 nM
same,Kd,"[3]; Binding constant Kb1, 250 mM MgSO4, 15 °C, 1000 bar",2380 nM
same,Kd,"[3]; Binding constant Kb1, 250 mM MgSO4, 15 °C, 1500 bar",2330 nM
same,Kd,"[3]; Binding constant Kb1, 250 mM MgSO4, 15 °C, 2000 bar",2220 nM
same,Kd,"[3]; Binding constant Kb1, 250 mM MgSO4, 25 °C, 1 bar",345 nM
same,Kd,"[3]; Binding constant Kb1, 250 mM MgSO4, 25 °C, 500 bar",345 nM
same,Kd,"[3]; Binding constant Kb1, 250 mM MgSO4, 25 °C, 1000 bar",370 nM
same,Kd,"[3]; Binding constant Kb1, 250 mM MgSO4, 25 °C, 1500 bar",417 nM
same,Kd,"[3]; Binding constant Kb1, 250 mM MgSO4, 25 °C, 2000 bar",455 nM
same,Kd,"[3]; Binding constant Kb2, 250 mM Mg(ClO4)2, 5 °C, 1 bar",5260 nM
same,Kd,"[3]; Binding constant Kb2, 250 mM Mg(ClO4)2, 5 °C, 500 bar",2500 nM
same,Kd,"[3]; Binding constant Kb2, 250 mM Mg(ClO4)2, 5 °C, 1000 bar",2940 nM
same,Kd,"[3]; Binding constant Kb2, 250 mM Mg(ClO4)2, 5 °C, 1500 bar",1920 nM
same,Kd,"[3]; Binding constant Kb2, 250 mM Mg(ClO4)2, 5 °C, 2000 bar",1520 nM
same,Kd,"[3]; Binding constant Kb2, 250 mM Mg(ClO4)2, 15 °C, 1 bar",7690 nM
same,Kd,"[3]; Binding constant Kb2, 250 mM Mg(ClO4)2, 15 °C, 500 bar",6670 nM
same,Kd,"[3]; Binding constant Kb2, 250 mM Mg(ClO4)2, 15 °C, 1000 bar",5260 nM
same,Kd,"[3]; Binding constant Kb2, 250 mM Mg(ClO4)2, 15 °C, 1500 bar",4760 nM
same,Kd,"[3]; Binding constant Kb2, 250 mM Mg(ClO4)2, 15 °C, 2000 bar",4170 nM
same,Kd,"[3]; Binding constant Kb2, 250 mM Mg(ClO4)2, 25 °C, 1 bar",833 nM
same,Kd,"[3]; Binding constant Kb2, 250 mM Mg(ClO4)2, 25 °C, 500 bar",909 nM
same,Kd,"[3]; Binding constant Kb2, 250 mM Mg(ClO4)2, 25 °C, 1000 bar",833 nM
same,Kd,"[3]; Binding constant Kb2, 250 mM Mg(ClO4)2, 25 °C, 1500 bar",833 nM
same,Kd,"[3]; Binding constant Kb2, 250 mM Mg(ClO4)2, 25 °C, 2000 bar",1120 nM
